The values that follow come from patent US20240307561A1, “RA[…] INHIBITOR CONJUGATES FOR CANCER TREATMENT” (DUKE UNIVERSITY, priority 2021, published 2024).

Where two headings read alike, the source gives them in different places. Bounds are passed on as bounds.

The target of one test is PARP-1 (Homo sapiens, UniProt P09874). The settings on record: release of PARP-1 from DNA; cited from earlier work.
A further test deals with PIP cells. Conditions: cited from earlier work.
In test [1] the test system is PSMA^+ PIP cells. Kind of test: PSMA-specific uptake and internalization in PIP cells. It is filed as cell-based. Conditions: for Total cell-associated activity (percentage of input dose): 37° C., 5×10^5 PIP cells. How it is done: PSMA-specific uptake and internalization of [^131I]PARP-PSMA combo agent 13 was determined by incubation with 5×10^5 PIP cells in triplicate in the absence or presence of 200 μM 2-PMPA at 37° C. for 0.25-2 h. After removing the unbound activity-containing medium, the cells were washed with 50 mM glycine, pH 2.8 and finally, cells were lysed with 1M NaOH. Radioactivity in the supernatants, glycine wash (membrane-bound) and lysate (internalized) fractions was counted and percentage of input dose calculated. […] Total cell-associated activity was 18.7±1.0%, 30.0±0.9%, 31.8±1.0 and 37.9±0.6% at 15, 30, 60, and 120 min, respectively.

The test system of test [2] is PSMA^+ PIP cells. In words: Subcellular fractionation in PSMA+ PIP cells. Format: cell-based. Conditions: 1 h. The protocol: Subcellular fractionation of [^131I]PARP-PSMA combo agent 13 in PSMA+ PIP cells was determined using The Subcellular Protein Fractionation Kit for Cultured Cells (Number 78840) purchased from Thermo Scientific. PIP Cells (5 million) were incubated with […] of [^131I] 13 in 1.5 ml tubes with a final incubation volume of 500 μL. Stepwise separation and preparation of cytoplasmic, membrane, nuclear soluble, chromatin-bound and cytoskeletal protein extracts from PSMA^+ PIP cells were achieved by following the protocol provided by Thermo Scientific. The following groups of experiments were performed: • 1. ([^131I]PARP-PSMA combo agent 13. • 2. ([^131I]PARP-PSMA combo agent 13+2-PMPA blocking agent (680 μM) • 3. ([^131I]PARP-PSMA combo agent 13+Olaparib blocking agent (6.8 mM) • 4. ([^131I]PARP-PSMA combo agent 13+2-PMPA blocking agent (6.8 mM)+Olaparib blocking agent (6.8 mM)

The mark [3] stands for this setting: + 2-PMPA (6.8 mM) + Olaparib (6.8 mM) blocking agents.
[4] abbreviates: + 2-PMPA blocking agent (680 μM).
[5] abbreviates: + Olaparib blocking agent (6.8 mM).

Sequence of PARP-1 (P09874 whole entry): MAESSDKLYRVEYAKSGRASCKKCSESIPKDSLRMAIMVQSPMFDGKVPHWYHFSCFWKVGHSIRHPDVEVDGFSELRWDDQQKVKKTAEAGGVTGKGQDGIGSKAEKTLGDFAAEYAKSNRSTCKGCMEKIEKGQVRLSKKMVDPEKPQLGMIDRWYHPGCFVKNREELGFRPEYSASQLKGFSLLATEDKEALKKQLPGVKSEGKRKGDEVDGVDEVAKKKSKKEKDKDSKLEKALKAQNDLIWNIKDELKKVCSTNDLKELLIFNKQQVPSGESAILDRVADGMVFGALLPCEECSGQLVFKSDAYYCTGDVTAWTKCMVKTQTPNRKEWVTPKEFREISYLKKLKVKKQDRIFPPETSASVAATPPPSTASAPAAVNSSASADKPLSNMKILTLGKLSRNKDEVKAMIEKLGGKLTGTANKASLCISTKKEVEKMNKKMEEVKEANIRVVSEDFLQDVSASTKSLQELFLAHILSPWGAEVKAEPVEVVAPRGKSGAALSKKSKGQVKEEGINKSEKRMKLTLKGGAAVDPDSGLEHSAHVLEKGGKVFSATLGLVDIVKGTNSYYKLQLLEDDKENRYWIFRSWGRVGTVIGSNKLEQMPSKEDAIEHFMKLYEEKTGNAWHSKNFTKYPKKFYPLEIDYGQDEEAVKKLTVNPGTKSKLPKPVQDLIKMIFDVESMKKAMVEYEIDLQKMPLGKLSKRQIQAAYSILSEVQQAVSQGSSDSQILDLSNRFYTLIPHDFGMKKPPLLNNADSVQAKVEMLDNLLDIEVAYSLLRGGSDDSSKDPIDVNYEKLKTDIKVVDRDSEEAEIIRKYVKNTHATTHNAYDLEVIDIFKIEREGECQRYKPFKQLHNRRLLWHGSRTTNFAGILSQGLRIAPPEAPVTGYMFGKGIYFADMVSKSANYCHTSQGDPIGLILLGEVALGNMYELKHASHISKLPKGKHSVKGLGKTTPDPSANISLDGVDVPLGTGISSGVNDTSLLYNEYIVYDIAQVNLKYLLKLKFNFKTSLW

Take `C[C@]1(c2nc3c(C(N)=O)cccc3[nH]2)CCCN1` [veliparib]: the “dissociation rate constant (kd)” value at PARP-1 was 0.00408 s⁻¹.

Consider `COC(=O)c1cnc(N2CCN(C(=O)c3ccc(-c4nc5c(C(N)=O)cccc5[nH]4)cc3)CC2)nc1` [UKTT15], for which the “dissociation rate constant (kd)” value on PARP-1 was 0.00185 s⁻¹.

As for `O=C(O)CC[C@H](NC(=O)N[C@@H](CCCCNC(=O)c1ccc([131I])cc1)C(=O)O)C(=O)O` [[^131I]DCIBzL], the values for the Total cell-associated activity in the test with PIP cells (30 min), in the test with PIP cells (60 min) and in the test on PIP cells (120 min) were 5.0±0.3%, 9.3±1.5% and 16.8±1.0%, respectively.

On to `O=C(O)CC[C@H](NC(=O)N[C@@H](CCCCNC(=O)CCOCCOCCOCCNC(=O)c1cc([131I])cc(C(=O)N2CCN(C(=O)c3cc(Cc4n[nH]c(=O)c5ccccc45)ccc3F)CC2)c1)C(=O)O)C(=O)O` [[^131I]PARP-PSMA combo agent 13, (20S,24S)-1-(3-(4-(2-fluoro-5-((4-oxo-3,4-dihydrophthalazin-1-yl)methyl)benzoyl)piperazine-1-carbonyl)-5-[^131I]iodophenyl)-1,14,22-trioxo-5,8,11-trioxa-2,15,21,23-tetraazahexacosane-20,24,26-tricarboxylic Acid], for which the “Total cell-associated activity (percentage of input dose)” value with PSMA^+ PIP cells [1] (15 min) turned out to be 18.7±1.0%. Moreover, the “Total cell-associated activity (percentage of input dose)” value in the test with PSMA^+ PIP cells [1] (30 min) is recorded as 30.0±0.9%. The “Total cell-associated activity (percentage of input dose)” value in the test on PSMA^+ PIP cells [1] (60 min) is on record as 31.8±1.0%. For the same molecule, in the test with PSMA^+ PIP cells [1] (120 min), the “Total cell-associated activity (percentage of input dose)” value is 37.9±0.6%. Further, in the test with PSMA^+ PIP cells [1] (presence of 200 μM 2-PMPA), the “Uptake blocked by 2-PMPA” value was over 80%. In addition, in the test on PSMA^+ PIP cells [2] (setting [3]), the “Cells Left Over” value was 0.02%, the Cytoplasmic came to 2.13%, the “Cytoskeletal Protein” value is reported as 0.02% and the Membrane was determined as 1.44%. Moreover, in the test with PSMA^+ PIP cells [2] (setting [3]), the “Micrococcal Nuclease” value is 0.03%, the “Nuclear Soluble” value is listed as 0.14%, the “Supernatant (Wash Out)” value came out at 87.21% and the “Total Cellular Uptake” value was found to be 3.78%. In the test on PSMA^+ PIP cells [2] (setting [4]), the “Cells Left Over” value is given as 0.06%, the Cytoplasmic came to 1.47%, the “Cytoskeletal Protein” value was found to be 0.03% and the Membrane was found to be 3.23%. Also, in the test on PSMA^+ PIP cells [2] (setting [4]), the “Micrococcal Nuclease” value came to 0.09%, the “Nuclear Soluble” value was determined as 0.11%, the “Supernatant (Wash Out)” value came to 86.85% and the “Total Cellular Uptake” value is 4.99%. In the test on PSMA^+ PIP cells [2] (setting [5]), the “Cells Left Over” value was 0.07%, the Cytoplasmic was 3.09%, the “Cytoskeletal Protein” value worked out at 0.15% and the Membrane is 9.00%. Moreover, in the test with PSMA^+ PIP cells [2] (setting [5]), the “Micrococcal Nuclease” value is 0.14%, the “Nuclear Soluble” value was 1.01%, the “Supernatant (Wash Out)” value came to 82.42% and the “Total Cellular Uptake” value stood at 13.44%. Besides, in the test with PSMA^+ PIP cells [2] (no blocking agent), the “Cells Left Over” value is given as 0.45%, the Cytoplasmic worked out at 2.50%, the “Cytoskeletal Protein” value is given as 0.28% and the Membrane came out at 20.70%. In the test with PSMA^+ PIP cells [2] (no blocking agent), the “Micrococcal Nuclease” value was 0.59%, the “Nuclear Soluble” value is reported as 2.17%, the “Supernatant (Wash Out)” value stood at 73.31% and the “Total Cellular Uptake” value was found to be 26.69%.
